Assay results reported in paper PMC5983371 (Experimental eye research, 2018).

Biological target: rhodopsin (light-activated, metarhodopsin II) (Bos taurus, UniProt P02699)
Assay: UV/Visible extra Meta II stabilization assay
Assay type: binding

Sequence of rhodopsin (light-activated, metarhodopsin II) (P02699 whole entry): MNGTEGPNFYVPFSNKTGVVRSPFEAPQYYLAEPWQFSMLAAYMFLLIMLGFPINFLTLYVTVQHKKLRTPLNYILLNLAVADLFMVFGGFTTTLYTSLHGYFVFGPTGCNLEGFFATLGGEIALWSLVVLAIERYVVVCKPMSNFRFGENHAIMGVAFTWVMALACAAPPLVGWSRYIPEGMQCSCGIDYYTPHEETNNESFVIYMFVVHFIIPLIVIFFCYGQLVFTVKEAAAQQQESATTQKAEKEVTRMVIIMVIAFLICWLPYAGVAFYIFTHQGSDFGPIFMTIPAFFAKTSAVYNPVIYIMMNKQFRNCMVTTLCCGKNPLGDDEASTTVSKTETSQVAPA

- EC50: 450 µM
Structure (SMILES): C[C@H](CCC(=O)NCCS(=O)(=O)O)[C@H]1CC[C@H]2[C@@H]3[C@@H](O)C[C@@H]4C[C@H](O)CC[C@]4(C)[C@H]3CC[C@]12C [TUDCA, Tauroursodeoxycholic acid]
